Columns and labels:
[1] = system: MCP-1; test: AcP-IgAN model: renal MCP-1 mRNA and protein; assay type: in vivo, B cell-deficient mice; settings: AcP-IgAN mice
Experimental: (§1) B cell-deficient mice (B6.129S2-Igh-6tm1Cgn/J) were obtained from the Academia Sinica (Professor John T. Kung, Institute of Molecular Biology), and maintained at the animal center of the National Defense Medical Center, Taipei, Taiwan. AcP-IgAN was induced in the mice by daily injection of purified IgA anti-phosphorylcholine antibodies and pneumococcal C-polysaccharide (PnC) as described previously (Chao, et al., Kidney Int. 70:283-297; 2006). All animal experiments were performed with the approval of the Institutional Animal Care and Use Committee of The National Defense Medical Center, Taiwan, and were consistent with the NIH Guide for the Care and Use of Laboratory Animals.
(§2) For IHC, formalin fixed and paraffin embedded tissue sections or frozen sections were incubated with against IL-6 (R&D Systems, MN), MCP-1 (Santa Cruz, Calif.), F4/80 (monocytes/macrophages; Serotec, N.C.), collagen IV (Southern Biotech, AL), TGF-β1 (Santa Cruz), phopsho-NFκB p65 (Cell Signaling, MA), CD3 (pan-T cell; Serotec), CD4 (T helper cell; BioLegend, CA), CD8 (cytotoxic T cell), CD11b (macrophages/neutrophils), or CD11c (dendritic cells) (BD Biosciences, CA) antibodies. The FITC-conjugated, Alexa Fluor 488-conjugated (Invitrogen, CA) or horseradish peroxidase (HRP) conjugated secondary antibodies (DAKO, Denmark) were then applied to the sections. Hematoxylin or 4′,6-diamidino-2-phenylindole (DAKO) was used in the counter staining for nuclei.
(§3) Total cortical kidney RNA was extracted with TriZOL reagents (Invitrogen) from cortical tissue of the kidney. For first-strand cDNA synthesis, 1.5 μg of total RNA was used in a single-round reverse transcriptase reaction. The reaction mixture consisted of 0.9 μl of Oligo (dT) 12 to 18 primer, 1.0 mM deoxyribonucleotide triphosphate (dNTP), 1 μl first strand buffer, 0.4 mM dithiothreitol, 80 U of RNaseout recombinant ribonuclease inhibitor, and 300 U of superscript II RNase H (Invitrogen). Real-time PCR was performed on an ABI Prism 7700 Sequence Detection System (Applied Biosystems, CA). […]

[2] = FSGS model: urine protein and renal function (BUN, Cr); assay type: in vivo, BALB/c mice; settings: FSGS mice
Experimental: (§4) Experiments described herein were performed on 8-week-old female BALB/c mice. The FSGS mice were injected intravenously with a single dose of adriamycin (0.1 mg/10 g body weight). The mice were given Compound 1 six hours before adriamycin injection by gavage daily till sacrifice. BALB/c mice intraperitoneal injected with normal saline were used as normal controls, while ASLN mice given vehicle (corn oil) by gavage were used as disease controls. Mice were killed at day 7, 14, or 21 after disease induction, and spleen, renal cortical tissue, and blood samples collected and stored appropriately until analysis. All animal experiments were performed with the ethical approval of the Institutional Animal Care and Use Committee of The National Defense Medical Center, Taiwan and performed according to the ethical rules in the NIH Guide for the Care and Use of Laboratory Animals.
Urine samples were collected in metabolic cages at day 3, 7, 14, and 21, and urine protein was determined as described previously. (Shui, et al., Nephrol Dial Transplant, 21: 1794-1802, 2006) Serum samples were collected at day 7, 14, or 21 when mice were sacrificed to measure serum levels of BUN and Cr.

[3] = system: IL-6; test: AcP-IgAN model: renal IL-6 mRNA and protein; assay type: in vivo, B cell-deficient mice; settings: AcP-IgAN mice
Experimental: as §1, §2, §3

[4] = system: IL-6; test: FSGS model: renal IL-6 (IHC); assay type: in vivo, BALB/c mice; settings: FSGS mice, vs control FSGS mice
Experimental: as §4, with “All animal experiments were performed with the ethical approval of the Institutional Animal Care and Use Committee of The National Defense Medical Center, Taiwan and performed according to the ethical rules in the NIH Guide for the Care and Use of Laboratory Animals.” left out
For IHC, formalin-fixed and paraffin-embedded renal sections were prepared and incubated with primary antibodies against mouse Desmin (Lab Vision, CA, USA), CD3 (pan-T cell; Serotec, N.C., USA), F4/80 (monocytes/macrophages; Serotec), IL-6 (R&D Systems, MN, USA), NF-κB p65 (Cell Signaling Technology, MA, USA), collagen I, III, and IV (Southern Biotech, AL, USA), or TGF-β1 (Santa Cruz Biotechnology, CA, USA), biotinylated second antibodies (Dako, Glostrup, Denmark), and avidin-biotin-peroxidase complex (Dako). Semi-quantitative evaluation of staining was performed.

[5] = AcP-IgAN model: body weight and general condition; assay type: in vivo, B cell-deficient mice; settings: AcP-IgAN mice, 50 mg/kg, up to day 28
Experimental: as §1
Body weight of the mice was measured weekly. Urine samples were collected in metabolic cages weekly, and urine protein determined followed the know methods (Chao, et al., Kidney Int. 70:283-297; 2006). Serum samples were collected at day 3 and day 28 to measure serum levels of blood urea nitrogen (BUN) and creatinine (Cr).

[6] = system: caspase-1; test: AcP-IgAN model: renal caspase-1 mRNA and protein; assay type: in vivo, B cell-deficient mice; settings: AcP-IgAN mice
Experimental: as §1
as §3, with “(Invitrogen).” for “(Invitrogen). Real-time PCR was performed on an ABI Prism 7700 Sequence Detection System (Applied Biosystems, CA).”
Each protein sample was run on a 10% SDS-PAGE gel. […] The membrane-bound antibody detected was incubated with chemiluminescent reagent plus (PerkinElmer Life Sciences, MA) and captured on x-ray film.

[7] = system: IL-18; test: AcP-IgAN model: renal IL-18 mRNA and protein; assay type: in vivo, B cell-deficient mice; settings: AcP-IgAN mice
Experimental: as §1
as §3, with “CA). All of the probes and primers were Assays-on-Demand Gene expression products (Applied Biosystems).” for “CA).”

[8] = day 28, vs control AcP-IgAN mice
[9] = 50 mg/kg by gavage daily, day 14 to day 21, vs control FSGS mice
[10] = day 7, among normal control, control FSGS and FSGS+Antroq mice
[11] = day 3 until day 28, real-time PCR

COC1=C(OC)[C@H](O)[C@H](C/C=C(\C)CC/C=C(\C)CCC=C(C)C)[C@@H](C)C1=O [Compound 1, Antroquinonol]
renal expression levels of mRNA and protein of MCP-1 ([1]; day 3): no such effect
renal expression levels of mRNA of MCP-1 [1, 8]: significantly reduced
renal expression levels of protein of MCP-1 [1, 8]: significantly reduced
urine protein levels ([2]; 50 mg/kg by gavage daily, day 7 to day 21, vs control FSGS mice (vehicle)): greatly suppressed
serum levels of blood urea nitrogen (BUN) [2, 9]: much better renal function
serum levels of creatinine (Cr) [2, 9]: much better renal function
serum levels of BUN [2, 10]: no significant difference
serum levels of Cr [2, 10]: no significant difference
renal expression levels of mRNA and protein of IL-6 ([3]; day 3): no such effect
renal expression levels of mRNA of IL-6 [3, 8]: significantly reduced
renal expression levels of protein of IL-6 [3, 8]: significantly reduced
renal protein expression levels of IL-6 (IHC) [4]: significantly reduced
activity, hair loss, appetite [5]: normal activity and no evidence of hair loss or appetite change
growth (body weight recorded every week) [5]: no different from that of normal controls
renal increase in caspase-1 protein levels ([6]; both day 3 and day 28, vs control AcP-IgAN mice): greatly inhibited
renal mRNA expression levels of caspase-1 (elevation) [6, 11]: greatly inhibited
renal mRNA expression levels of IL-18 (elevation) [7, 11]: greatly inhibited
renal IL-18 protein production ([7]; only at day 28): significantly inhibited
